What was measured:
[1] = target: MAP kinase-interacting serine/threonine-protein kinase 1 (Homo sapiens) (UniProt Q9BUB5); assay: Inhibition of MNK1 (unknown origin) at 10 uM after 120 mins P33 radiolabeled kinase activity assay
[2] = target: Activin receptor type-1-like (Homo sapiens) (UniProt P37023); assay: Inhibition of ALK1 (unknown origin) at 10 uM after 120 mins P33 radiolabeled kinase activity assay
[3] = target: Glycogen synthase kinase-3 beta (Homo sapiens) (UniProt P49841); assay: Inhibition of GSK3beta (unknown origin) at 10 uM after 120 mins P33 radiolabeled kinase activity assay
Chain of Glycogen synthase kinase-3 beta (Homo sapiens) (P49841 whole entry, looked up): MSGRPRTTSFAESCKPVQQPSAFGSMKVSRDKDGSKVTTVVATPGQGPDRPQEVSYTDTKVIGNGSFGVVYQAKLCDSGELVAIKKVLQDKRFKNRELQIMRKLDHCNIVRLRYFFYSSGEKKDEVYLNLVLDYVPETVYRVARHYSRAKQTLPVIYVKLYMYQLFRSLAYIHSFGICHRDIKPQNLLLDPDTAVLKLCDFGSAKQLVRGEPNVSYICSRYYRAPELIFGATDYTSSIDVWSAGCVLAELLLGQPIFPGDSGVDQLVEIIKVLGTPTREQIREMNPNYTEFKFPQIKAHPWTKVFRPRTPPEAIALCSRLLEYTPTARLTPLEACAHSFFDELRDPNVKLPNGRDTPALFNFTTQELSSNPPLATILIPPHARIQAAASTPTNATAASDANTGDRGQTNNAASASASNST

[4] = target: T1, Homeodomain-interacting protein kinase 4 (Homo sapiens) (UniProt Q8NE63); assay: Inhibition of HIPK4 (unknown origin) at 10 uM after 120 mins P33 radiolabeled kinase activity assay
T1 sequence (whole entry): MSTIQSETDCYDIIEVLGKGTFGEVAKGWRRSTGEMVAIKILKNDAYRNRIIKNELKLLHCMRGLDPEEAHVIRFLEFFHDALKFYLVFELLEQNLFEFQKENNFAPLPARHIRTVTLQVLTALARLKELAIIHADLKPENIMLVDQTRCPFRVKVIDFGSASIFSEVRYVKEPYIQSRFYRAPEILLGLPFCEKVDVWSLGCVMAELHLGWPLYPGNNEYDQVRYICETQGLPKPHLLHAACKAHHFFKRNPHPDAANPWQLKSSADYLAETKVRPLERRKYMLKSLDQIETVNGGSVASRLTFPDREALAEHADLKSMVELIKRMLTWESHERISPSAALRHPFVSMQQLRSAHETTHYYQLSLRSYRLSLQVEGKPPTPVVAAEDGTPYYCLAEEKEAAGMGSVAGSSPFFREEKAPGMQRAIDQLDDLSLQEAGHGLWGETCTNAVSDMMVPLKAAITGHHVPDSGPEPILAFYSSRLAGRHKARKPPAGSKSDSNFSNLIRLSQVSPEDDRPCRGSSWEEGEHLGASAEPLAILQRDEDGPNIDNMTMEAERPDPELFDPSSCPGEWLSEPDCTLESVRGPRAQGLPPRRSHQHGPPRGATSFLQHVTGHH

[5] = target: Receptor-interacting serine/threonine-protein kinase 2 (Homo sapiens, UniProt O43353); assay: Inhibition of full-length FLAG-6His-TEV tagged human RIP2 expressed in Sf9 cells assessed as residence time by fluorescent polarization assay
Chain of Receptor-interacting serine/threonine-protein kinase 2 (O43353 whole entry): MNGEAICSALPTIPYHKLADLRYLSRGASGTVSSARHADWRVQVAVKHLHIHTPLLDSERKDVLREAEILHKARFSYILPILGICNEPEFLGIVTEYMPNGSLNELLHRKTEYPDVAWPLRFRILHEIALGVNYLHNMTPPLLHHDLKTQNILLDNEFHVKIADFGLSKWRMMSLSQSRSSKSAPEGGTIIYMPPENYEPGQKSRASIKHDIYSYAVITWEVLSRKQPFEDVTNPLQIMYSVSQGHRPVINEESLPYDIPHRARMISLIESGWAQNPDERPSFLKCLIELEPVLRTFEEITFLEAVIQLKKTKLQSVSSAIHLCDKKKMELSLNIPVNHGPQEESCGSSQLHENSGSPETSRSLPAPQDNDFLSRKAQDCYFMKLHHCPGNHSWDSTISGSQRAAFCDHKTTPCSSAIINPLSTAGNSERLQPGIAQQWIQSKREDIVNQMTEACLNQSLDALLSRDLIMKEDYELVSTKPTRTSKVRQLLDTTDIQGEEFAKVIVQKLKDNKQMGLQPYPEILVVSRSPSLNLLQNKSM

[6] = target: T2, Serine/threonine-protein kinase 4 (Homo sapiens) (UniProt Q13043); assay: Inhibition of MST1 (unknown origin) at 10 uM after 120 mins P33 radiolabeled kinase activity assay
T2 sequence (whole entry): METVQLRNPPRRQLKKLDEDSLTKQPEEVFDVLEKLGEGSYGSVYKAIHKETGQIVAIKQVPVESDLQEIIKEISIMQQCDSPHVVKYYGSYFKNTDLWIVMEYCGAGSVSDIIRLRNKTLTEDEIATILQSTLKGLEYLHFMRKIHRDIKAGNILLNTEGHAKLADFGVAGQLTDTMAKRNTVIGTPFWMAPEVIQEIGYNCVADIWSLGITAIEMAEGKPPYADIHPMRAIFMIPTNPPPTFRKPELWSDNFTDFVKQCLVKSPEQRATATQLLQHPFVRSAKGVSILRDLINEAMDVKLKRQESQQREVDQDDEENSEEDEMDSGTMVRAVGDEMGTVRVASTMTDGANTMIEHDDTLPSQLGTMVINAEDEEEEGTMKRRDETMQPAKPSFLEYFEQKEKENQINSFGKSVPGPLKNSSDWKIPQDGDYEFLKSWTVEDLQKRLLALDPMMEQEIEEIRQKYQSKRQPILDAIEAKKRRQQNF

[7] = target: Serine/threonine-protein kinase 33 (Homo sapiens) (UniProt Q9BYT3); assay: Inhibition of STK33 (unknown origin) at 10 uM after 120 mins P33 radiolabeled kinase activity assay
Chain of Serine/threonine-protein kinase 33 (Homo sapiens) (Q9BYT3 whole entry, looked up): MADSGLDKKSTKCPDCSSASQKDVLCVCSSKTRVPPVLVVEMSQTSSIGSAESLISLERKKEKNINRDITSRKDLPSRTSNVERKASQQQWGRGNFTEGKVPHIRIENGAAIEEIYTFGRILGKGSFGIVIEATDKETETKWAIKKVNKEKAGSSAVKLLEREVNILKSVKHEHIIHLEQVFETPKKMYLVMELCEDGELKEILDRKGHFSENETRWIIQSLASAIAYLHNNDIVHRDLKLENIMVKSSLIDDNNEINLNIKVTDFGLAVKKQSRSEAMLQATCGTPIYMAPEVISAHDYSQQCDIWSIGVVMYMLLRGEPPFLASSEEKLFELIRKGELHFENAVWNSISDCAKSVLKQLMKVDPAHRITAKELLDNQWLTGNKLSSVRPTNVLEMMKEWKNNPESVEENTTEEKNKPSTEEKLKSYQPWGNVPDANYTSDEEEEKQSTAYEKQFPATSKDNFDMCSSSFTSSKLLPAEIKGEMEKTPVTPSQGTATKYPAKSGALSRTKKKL

[8] = target: T3, Mitogen-activated protein kinase kinase kinase 5 (Homo sapiens) (UniProt Q99683); assay: Inhibition of ASK1 (unknown origin) at 10 uM after 120 mins P33 radiolabeled kinase activity assay
T3 sequence (whole entry): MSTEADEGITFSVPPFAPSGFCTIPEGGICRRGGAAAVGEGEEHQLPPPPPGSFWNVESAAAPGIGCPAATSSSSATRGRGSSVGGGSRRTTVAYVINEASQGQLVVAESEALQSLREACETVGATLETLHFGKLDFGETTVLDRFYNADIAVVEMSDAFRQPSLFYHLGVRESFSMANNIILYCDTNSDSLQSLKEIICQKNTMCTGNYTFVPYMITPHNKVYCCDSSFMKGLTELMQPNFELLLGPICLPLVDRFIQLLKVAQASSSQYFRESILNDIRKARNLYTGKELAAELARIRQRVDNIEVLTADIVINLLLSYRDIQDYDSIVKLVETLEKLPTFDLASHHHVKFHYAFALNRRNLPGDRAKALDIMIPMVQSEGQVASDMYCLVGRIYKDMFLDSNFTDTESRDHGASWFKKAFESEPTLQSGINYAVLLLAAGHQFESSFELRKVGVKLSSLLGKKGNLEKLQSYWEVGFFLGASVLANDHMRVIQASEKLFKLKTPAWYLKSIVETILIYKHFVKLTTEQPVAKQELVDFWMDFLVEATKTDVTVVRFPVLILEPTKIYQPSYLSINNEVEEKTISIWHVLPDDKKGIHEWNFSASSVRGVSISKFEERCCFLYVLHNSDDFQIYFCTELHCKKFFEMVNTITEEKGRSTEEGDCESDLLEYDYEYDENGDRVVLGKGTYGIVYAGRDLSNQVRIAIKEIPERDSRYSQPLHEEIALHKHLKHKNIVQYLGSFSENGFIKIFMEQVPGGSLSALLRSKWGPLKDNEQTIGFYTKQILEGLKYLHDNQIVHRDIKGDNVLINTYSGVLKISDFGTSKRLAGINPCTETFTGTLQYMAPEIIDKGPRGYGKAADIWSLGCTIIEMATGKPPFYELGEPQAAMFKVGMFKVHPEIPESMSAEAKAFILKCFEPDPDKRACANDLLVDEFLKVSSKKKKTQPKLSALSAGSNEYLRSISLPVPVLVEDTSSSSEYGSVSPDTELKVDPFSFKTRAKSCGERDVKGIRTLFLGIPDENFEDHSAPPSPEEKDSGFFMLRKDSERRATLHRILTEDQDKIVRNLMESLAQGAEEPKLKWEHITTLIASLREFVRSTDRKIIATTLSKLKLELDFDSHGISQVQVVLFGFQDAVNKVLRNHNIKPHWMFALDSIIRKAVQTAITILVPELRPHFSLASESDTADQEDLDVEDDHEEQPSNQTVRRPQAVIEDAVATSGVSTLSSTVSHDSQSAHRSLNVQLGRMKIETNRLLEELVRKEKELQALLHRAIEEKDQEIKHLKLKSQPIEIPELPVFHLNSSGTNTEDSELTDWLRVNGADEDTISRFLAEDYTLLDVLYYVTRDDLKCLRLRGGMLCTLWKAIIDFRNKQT

[9] = target: Serine/threonine-protein kinase MRCK gamma (Homo sapiens) (UniProt Q6DT37); assay: Inhibition of DMPK2 (unknown origin) at 10 uM after 120 mins P33 radiolabeled kinase activity assay
Chain of Serine/threonine-protein kinase MRCK gamma (Homo sapiens) (Q6DT37 whole entry): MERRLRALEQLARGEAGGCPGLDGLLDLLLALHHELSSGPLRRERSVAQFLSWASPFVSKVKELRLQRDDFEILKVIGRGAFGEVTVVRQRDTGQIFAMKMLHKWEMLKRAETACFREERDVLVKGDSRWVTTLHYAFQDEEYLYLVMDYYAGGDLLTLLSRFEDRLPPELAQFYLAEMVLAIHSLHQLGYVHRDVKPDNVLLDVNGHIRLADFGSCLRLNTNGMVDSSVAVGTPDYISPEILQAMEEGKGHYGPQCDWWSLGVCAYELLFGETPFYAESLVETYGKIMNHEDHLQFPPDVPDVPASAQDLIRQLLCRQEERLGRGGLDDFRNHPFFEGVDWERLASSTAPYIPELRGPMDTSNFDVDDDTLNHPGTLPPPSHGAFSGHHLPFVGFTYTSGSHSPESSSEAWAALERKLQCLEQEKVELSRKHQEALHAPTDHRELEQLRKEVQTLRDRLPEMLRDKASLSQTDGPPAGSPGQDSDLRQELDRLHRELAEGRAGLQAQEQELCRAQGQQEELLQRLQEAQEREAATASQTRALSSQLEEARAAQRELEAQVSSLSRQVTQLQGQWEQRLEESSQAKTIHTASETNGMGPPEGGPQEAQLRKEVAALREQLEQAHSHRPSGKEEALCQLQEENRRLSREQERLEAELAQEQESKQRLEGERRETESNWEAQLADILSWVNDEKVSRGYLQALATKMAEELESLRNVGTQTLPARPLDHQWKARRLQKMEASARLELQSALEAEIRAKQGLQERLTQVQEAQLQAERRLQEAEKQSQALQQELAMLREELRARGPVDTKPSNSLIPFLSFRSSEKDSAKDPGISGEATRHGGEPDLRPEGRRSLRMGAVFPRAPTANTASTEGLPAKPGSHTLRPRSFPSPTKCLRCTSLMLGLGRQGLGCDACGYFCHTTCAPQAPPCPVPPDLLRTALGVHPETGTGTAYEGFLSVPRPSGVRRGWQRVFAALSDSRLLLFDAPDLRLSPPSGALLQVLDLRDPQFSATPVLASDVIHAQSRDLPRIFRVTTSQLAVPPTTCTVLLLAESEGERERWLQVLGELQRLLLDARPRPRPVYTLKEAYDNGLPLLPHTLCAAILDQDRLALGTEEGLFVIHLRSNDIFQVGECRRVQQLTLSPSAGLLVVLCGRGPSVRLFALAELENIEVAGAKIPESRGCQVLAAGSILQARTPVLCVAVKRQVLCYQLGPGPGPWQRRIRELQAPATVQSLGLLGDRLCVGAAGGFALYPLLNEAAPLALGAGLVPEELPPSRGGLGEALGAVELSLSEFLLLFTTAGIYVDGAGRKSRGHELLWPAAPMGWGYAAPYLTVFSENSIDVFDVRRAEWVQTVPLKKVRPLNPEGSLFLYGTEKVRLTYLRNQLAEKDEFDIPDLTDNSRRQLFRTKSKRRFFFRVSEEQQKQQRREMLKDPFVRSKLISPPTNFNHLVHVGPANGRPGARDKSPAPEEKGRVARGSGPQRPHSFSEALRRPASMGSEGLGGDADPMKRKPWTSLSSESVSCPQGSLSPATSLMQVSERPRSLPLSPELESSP

Chain of Activin receptor type-1-like (Homo sapiens) (P37023 whole entry): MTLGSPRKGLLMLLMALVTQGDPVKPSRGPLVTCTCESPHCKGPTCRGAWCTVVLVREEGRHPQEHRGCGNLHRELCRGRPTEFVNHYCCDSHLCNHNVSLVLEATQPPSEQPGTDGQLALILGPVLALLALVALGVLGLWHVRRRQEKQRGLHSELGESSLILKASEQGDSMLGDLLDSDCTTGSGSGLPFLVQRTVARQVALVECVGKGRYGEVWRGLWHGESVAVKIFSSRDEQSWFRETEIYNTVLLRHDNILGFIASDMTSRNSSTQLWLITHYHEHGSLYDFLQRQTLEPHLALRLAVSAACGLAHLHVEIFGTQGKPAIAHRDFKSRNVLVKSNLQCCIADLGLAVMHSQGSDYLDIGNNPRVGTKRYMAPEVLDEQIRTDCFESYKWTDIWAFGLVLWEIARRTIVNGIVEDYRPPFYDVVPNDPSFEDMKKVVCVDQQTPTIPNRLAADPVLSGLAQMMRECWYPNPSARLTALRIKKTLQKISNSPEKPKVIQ
Chain of MAP kinase-interacting serine/threonine-protein kinase 1 (Homo sapiens) (Q9BUB5 whole entry, looked up): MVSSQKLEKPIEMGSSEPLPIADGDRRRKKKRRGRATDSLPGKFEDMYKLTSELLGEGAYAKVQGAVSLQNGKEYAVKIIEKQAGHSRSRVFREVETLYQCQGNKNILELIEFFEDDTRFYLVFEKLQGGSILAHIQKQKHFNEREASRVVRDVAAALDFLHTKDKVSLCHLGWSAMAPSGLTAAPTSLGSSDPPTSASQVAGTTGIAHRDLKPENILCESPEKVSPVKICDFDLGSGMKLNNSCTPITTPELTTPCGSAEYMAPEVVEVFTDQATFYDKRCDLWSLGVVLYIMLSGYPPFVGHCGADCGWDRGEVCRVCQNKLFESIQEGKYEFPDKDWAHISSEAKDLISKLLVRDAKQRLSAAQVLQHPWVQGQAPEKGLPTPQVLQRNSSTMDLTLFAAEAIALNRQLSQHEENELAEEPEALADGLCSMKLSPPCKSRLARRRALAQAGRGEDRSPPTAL

| inhibition [1] [%] | inhibition [2] [%] | inhibition [3] [%] | inhibition [4] [%] | T1/2 [5] [h] | inhibition [6] [%] | inhibition [7] [%] | inhibition [8] [%] | inhibition [9] [%] | Structure (SMILES) |
| --- | --- | --- | --- | --- | --- | --- | --- | --- | --- |
| 28.7 | 28.2 | 16.9 | -9.28 | 0.00167 | 9.73 | 10.6 | 19.7 | -3.48 | COCCNC(=O)c1ccc2c(c1)nc(-c1cnc(-c3ccc(Cl)cc3)[nH]1)n2CCOC |
| 73 | 96.2 | 98.9 | 97 | 1.32 | 16 | 29.3 | 9.88 | -3.32 | CS(=O)(=O)c1cccc(Nc2nccc(-c3sc(N4CCOCC4)nc3-c3cccc(NS(=O)(=O)c4c(F)cccc4F)c3)n2)c1 |
| 99.6 | 3.54 | 34.9 | 96.7 | 1.42 | 11.5 | 36.7 | 19.8 | -1.44 | CC(C)(C)c1cc(NC(=O)Nc2ccc(Oc3ccncc3)cc2)no1 |
